From patent publication US20020177575A1, “Identification of farnesyl-protein transferase as a target for systemic lupus erythematosus therapies” (priority 2001, published 2002)

Legend:
B6.Sle1(a+b) mice = assay: Suppression of anti-nuclear autoantibody (ANA) production in B6.Sle1(a+b) mice; anti-histone-DNA ANA in sera by ELISA; assay type: in vivo, mouse; settings: daily intraperitoneal injection, 75 mg/kg body weight for 4 weeks, sera before, during and after treatment
Protocol: T0 represents the OD value for measuring the titer of anti-Histone/DNA antibodies before treatment. T represents the OD value for measuring the titer of anti-Histone/DNA antibodies at a time point during or after treatment. Each point represents Mean±SE. Mice in control group were given vehicle (Tricaprylin) only.
To study whether POH can inhibit anti-nuclear autoantibody (ANA) production, the inventors treated B6.Sle1(a+b) mice by daily intraperitoneal injection of POH at a dose of 75 mg/kg body weight for 4 weeks. Sera were collected before, during, and after treatment. Levels of anti-histone-DNA ANA were determined by ELISA.

[1] = tested on: ras protein farnesylation; settings: has been shown (prior knowledge); cited from earlier work

SMILES: C=C(C)[C@@H]1CC=C(CO)CC1 [POH, Perillyl alcohol]
- Sle1-mediated anti-histone-DNA ANA production (B6.Sle1(a+b) mice; FIG. 3): can be suppressed
- Sle1-mediated anti-histone-DNA ANA production (B6.Sle1(a+b) mice; FIG. 3, listed as perillyl alcohol (POH)): Inhibitory effect
- ras protein farnesylation [1]: has been shown to inhibit ras protein farnesylation
